Values quoted from earlier work, collected in patent publication US9682924B2, “Crystalline form of VSN16” (CANBEX THERAPEUTICS LIMITED, priority 2013, dated 2017).

What was measured:
[1] = test system: mesenteric arteries; conditions: for antagonism of VSN16 vasorelaxation: antagonist against VSN16-induced vasorelaxation, rimonabant and AM 251 at high concentrations
[2] = test system: spasticity in CREAE mice; conditions: without producing significant adverse CNS effects
[3] = test system: conscious rats
[4] = biological target: T1, CB1 receptors (Rattus norvegicus, UniProt P20272); conditions: rat cerebellum
T1 construct: from tissue; host or cells: rat cerebellum
T1 sequence (P20272 whole entry): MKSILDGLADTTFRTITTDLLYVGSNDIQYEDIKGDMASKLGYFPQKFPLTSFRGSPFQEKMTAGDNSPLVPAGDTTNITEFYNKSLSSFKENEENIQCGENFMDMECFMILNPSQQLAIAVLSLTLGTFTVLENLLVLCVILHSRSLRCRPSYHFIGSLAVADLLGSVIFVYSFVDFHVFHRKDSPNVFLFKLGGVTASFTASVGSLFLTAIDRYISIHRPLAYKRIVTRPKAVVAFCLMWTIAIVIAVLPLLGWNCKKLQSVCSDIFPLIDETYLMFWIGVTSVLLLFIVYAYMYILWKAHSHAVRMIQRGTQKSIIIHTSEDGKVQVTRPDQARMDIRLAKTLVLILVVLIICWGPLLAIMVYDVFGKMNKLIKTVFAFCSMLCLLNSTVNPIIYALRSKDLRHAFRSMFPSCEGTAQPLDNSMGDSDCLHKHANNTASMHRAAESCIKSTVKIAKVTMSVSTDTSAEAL

Cc1c(C(=O)NN2CCCCC2)nn(-c2ccc(Cl)cc2Cl)c1-c1ccc(I)cc1 [AM 251]
antagonism of VSN16 vasorelaxation [1]: antagonized

C=C(C)[C@@H]1CCC(C)=C[C@H]1c1c(OC)cc(C)cc1OC [O-1918]
antagonism of VSN16 vasorelaxation [1]: antagonized

CC(CO)NC(=O)c1cccc(/C=C\CCCC(=O)N(C)C)c1 (centres unmarked) [VSN16]
effect on spasticity [2]: marked effect on spasticity | blood pressure [3]: transiently increases blood pressure | mesenteric vascular conductance [3]: longer-lasting increase in mesenteric vascular conductance | relaxation of mesenteric arteries ([1]; endothelium-dependent): relaxes mesenteric arteries in an endothelium-dependent manner | effect on [3H]CP55,940 binding to CB1 receptors [4]: does not affect

Cc1c(C(=O)NN2CCCCC2)nn(-c2ccc(Cl)cc2Cl)c1-c1ccc(Cl)cc1 [rimonabant]
antagonism of VSN16 vasorelaxation [1]: antagonized
